Test results as given in PMC9647539, “Computational and functional studies of the PI(4,5)P2 binding site of the TRPM3 ion channel reveal interactions with other regulators” (The Journal of Biological Chemistry, 2022).

Assays:
Rat TRPM8 or its mutants [1] = assay: Menthol concentration dependence, TEVC in Xenopus oocytes; format: cell-based; conditions: 100 mV; R851A and W682Q mutants
Protocol: (§1) To express exogenous proteins, RNA was microinjected into oocytes using a nanoliter-injector system (Warner Instruments). RNA was in vitro transcribed from the linearized pGEMSH vectors, which contained the complementary DNA clones for hTRPM3 ([38]) rat TRPM8, human M2 muscarinic (hM2) receptor, or Gβγ subunits by using the mMessage mMachine T7 Transcription Kit (Thermo Fisher Scientific). […] For coexpression of TRPM3 constructs and Gβ1γ2 subunits, 40 ng of TRPM3 was coinjected with 5 ng Gβ1 and 5 ng Gγ2. In the case of coexpressing TRPM3 and hM2 receptors, these two were injected at 1:1 ratio, 40 ng each. […]
(§2) Oocytes were placed in extracellular solution, which contained 97 mM NaCl, 2 mM KCl, 1 mM MgCl2, and 5 mM Hepes, pH 7.4. Currents were measured with a protocol consisting a voltage step from the 0 mV holding potential to −100 mV, followed by a ramp to 100 mV once every 0.5 s with a GeneClamp 500B amplifier and analyzed with the pClamp 9.0 software (Molecular Devices). Currents were recorded by thin wall glass pipettes that contained inner filament and were filled with 1% agarose in 3 M KCl. […] For wortmannin experiments specifically, PregS, or menthol-induced currents were measured, then the same oocyte was incubated with 35 μM wortmannin for 2 h, and currents were measured again using the same protocol. […]

hTRPM3 = test system: hTRPM3; set-up: method as in PMID 32343227; conditions: hTRPM3 WT; read-out: EC50 concentration of PregS; cited from earlier work
hTRPM3 V990M = test system: hTRPM3 V990M; set-up: method as in PMID 32343227; conditions: V990M mutant; read-out: EC50 concentration of PregS; cited from earlier work
hTRPM3 P1090Q = test system: hTRPM3 P1090Q; set-up: method as in PMID 32343227; conditions: P1090Q mutant; read-out: EC50 concentration of PregS; cited from earlier work
[2] = test system: TRPM3_1325 splice variant or its mutants; assay: PregS concentration dependence, TEVC in Xenopus oocytes; format: cell-based, human; conditions: 100 mV; N991A and K992A mutants
Protocol: as §1, §2

[3] = test system: Human TRPM3_1325 splice variant or its mutants; set-up: method as in PMID 26123195; conditions: 35 nM wortmannin (selectively inhibits PI3K); cited from earlier work
[4] = test system: Human TRPM3_1325 splice variant or its mutants; assay: Wortmannin inhibition of PregS-induced currents (PI(4,5)P2 depletion), TEVC in Xenopus oocytes; format: cell-based; conditions: 35 μM wortmannin 2 h; for inhibition of PregS-induced currents after wortmannin treatment, compared with WT TRPM3: 100 mV; for inhibition of PregS-induced currents after wortmannin treatment, WT vs disease mutants: V990M and P1090Q
Protocol: Next, we mutated the predicted PI(4,5)P2-interacting residues in TRPM3 and tested the effects of the mutations on sensitivity to inhibition by decreasing PI(4,5)P2 levels. We expressed the WT and mutant channels in Xenopus oocytes and performed two-electrode voltage clamp (TEVC) experiments. We stimulated channel activity with 50 μM PregS and measured current amplitudes, then incubated the oocytes with 35 μM wortmannin for 2 h, and measured PregS-induced currents in the same oocytes (Fig. 3, A and B). Wortmannin at this concentration inhibits phosphatidylinositol 4-kinases and has been used to inhibit the activity of PI(4,5)P2-dependent ion channels ([39]). […] Mutating a PI(4,5)P2-interacting residue is expected to increase inhibition by high concentrations of wortmannin ([39]). […] We also generated two additional mutations in the TRP domain in residues that are not in contact with PI(4,5)P2, K1128Q and R1141Q.
To express exogenous proteins, RNA was microinjected into oocytes using a nanoliter-injector system (Warner Instruments). RNA was in vitro transcribed from the linearized pGEMSH vectors, which contained the complementary DNA clones for hTRPM3 ([38]) rat TRPM8, human M2 muscarinic (hM2) receptor, or Gβγ subunits by using the mMessage mMachine T7 Transcription Kit (Thermo Fisher Scientific). […] For coexpression of TRPM3 constructs and Gβ1γ2 subunits, 40 ng of TRPM3 was coinjected with 5 ng Gβ1 and 5 ng Gγ2. In the case of coexpressing TRPM3 and hM2 receptors, these two were injected at 1:1 ratio, 40 ng each. Oocytes were used for electrophysiological experiments after 48 to 72 h incubation at 16 °C after RNA injection.
Oocytes were placed in extracellular solution, which contained 97 mM NaCl, 2 mM KCl, 1 mM MgCl2, and 5 mM Hepes, pH 7.4. Currents were measured with a protocol consisting a voltage step from the 0 mV holding potential to −100 mV, followed by a ramp to 100 mV once every 0.5 s with a GeneClamp 500B amplifier and analyzed with the pClamp 9.0 software (Molecular Devices). Currents were recorded by thin wall glass pipettes that contained inner filament and were filled with 1% agarose in 3 M KCl. In all TEVC experiments, different concentrations of PregS were applied to activate TRPM3 channels, and various concentrations of menthol were used to trigger responses of TRPM8 channels. The hM2 receptor was activated by 5 μM acetylcholine. For wortmannin experiments specifically, PregS, or menthol-induced currents were measured, then the same oocyte was incubated with 35 μM wortmannin for 2 h, and currents were measured again using the same protocol. In the bar graphs in Figure 3, the individual panels show experiments that were performed on the same day.

Rat TRPM8 or its mutants [5] = assay: Wortmannin inhibition of menthol-induced currents (PI(4,5)P2 depletion), TEVC in Xenopus oocytes; format: cell-based; conditions: 35 μM wortmannin 2 h; 500 μM menthol; 100 mV; R851Q and W682Q mutants
Protocol: as §1, §2

[6] = test system: mouse TRPM3α2 (mTRPM3α2) or its mutant N993A; assay: Whole-cell patch clamp with rapamycin-inducible pseudojanin phosphatase in HEK293 cells; format: cell-based; conditions: 100 nM rapamycin
Protocol: Human embryonic kidney 293 cells were purchased from American Type Culture Collection (catalog number: CRL-1573). Human embryonic kidney 293 cells were cultured in minimum essential medium supplemented with 10% fetal bovine serum and 100 IU/ml penicillin plus 100 μg/ml streptomycin. Cells were incubated in 5% CO2 at 37 °C. Cells were tested to confirm that they were not infected by mycoplasma. Cells were used up to 25 passages and then discarded. Cells were transiently transfected with complementary DNA encoding different TRPM3 constructs (200–400 ng) using the Effectene reagent (Qiagen). mTRPM3α2 and its mutant were cloned into the bicistronic pCAGGS/IRES-GFP vector. The components of rapamycin-inducible pseudojanin phosphatases ([40]) were cotransfected with mTRPM3α2 at 1:1 ratio.
After 24 h of transfection, cells were plated on poly-D-lysine–coated 12 mm cover slips. Experiments were performed 48 to 72 h after transfection. […] After formation of gigaohm-resistance seals, the whole cell configuration was established, and currents were recorded by applying a ramp protocol once every 1 s. […] Data were collected and analyzed with the pClamp10.6 (Clampex) acquisition software (Molecular Devices) and further analyzed and plotted with Prism 9 (GraphPad by Dotmatics). […]

[7] = biological target: T1, hTRPM3 or its mutant N991A (Homo sapiens, UniProt Q9HCF6, N1016A); assay: Excised inside-out patch clamp, relative effect of PI(4)P compared to PI(4,5)P2; format: cell-based; conditions: 25 μM diC8 PI(4)P vs 25 μM diC8 PI(4,5)P2, 100 μM PregS in pipette
T1 construct: expressed in transfected cells; host or cells: Xenopus laevis oocytes (excised inside-out patches)
T1 sequence (Q9HCF6 1-1325 isoform Q9HCF6-10 N991A): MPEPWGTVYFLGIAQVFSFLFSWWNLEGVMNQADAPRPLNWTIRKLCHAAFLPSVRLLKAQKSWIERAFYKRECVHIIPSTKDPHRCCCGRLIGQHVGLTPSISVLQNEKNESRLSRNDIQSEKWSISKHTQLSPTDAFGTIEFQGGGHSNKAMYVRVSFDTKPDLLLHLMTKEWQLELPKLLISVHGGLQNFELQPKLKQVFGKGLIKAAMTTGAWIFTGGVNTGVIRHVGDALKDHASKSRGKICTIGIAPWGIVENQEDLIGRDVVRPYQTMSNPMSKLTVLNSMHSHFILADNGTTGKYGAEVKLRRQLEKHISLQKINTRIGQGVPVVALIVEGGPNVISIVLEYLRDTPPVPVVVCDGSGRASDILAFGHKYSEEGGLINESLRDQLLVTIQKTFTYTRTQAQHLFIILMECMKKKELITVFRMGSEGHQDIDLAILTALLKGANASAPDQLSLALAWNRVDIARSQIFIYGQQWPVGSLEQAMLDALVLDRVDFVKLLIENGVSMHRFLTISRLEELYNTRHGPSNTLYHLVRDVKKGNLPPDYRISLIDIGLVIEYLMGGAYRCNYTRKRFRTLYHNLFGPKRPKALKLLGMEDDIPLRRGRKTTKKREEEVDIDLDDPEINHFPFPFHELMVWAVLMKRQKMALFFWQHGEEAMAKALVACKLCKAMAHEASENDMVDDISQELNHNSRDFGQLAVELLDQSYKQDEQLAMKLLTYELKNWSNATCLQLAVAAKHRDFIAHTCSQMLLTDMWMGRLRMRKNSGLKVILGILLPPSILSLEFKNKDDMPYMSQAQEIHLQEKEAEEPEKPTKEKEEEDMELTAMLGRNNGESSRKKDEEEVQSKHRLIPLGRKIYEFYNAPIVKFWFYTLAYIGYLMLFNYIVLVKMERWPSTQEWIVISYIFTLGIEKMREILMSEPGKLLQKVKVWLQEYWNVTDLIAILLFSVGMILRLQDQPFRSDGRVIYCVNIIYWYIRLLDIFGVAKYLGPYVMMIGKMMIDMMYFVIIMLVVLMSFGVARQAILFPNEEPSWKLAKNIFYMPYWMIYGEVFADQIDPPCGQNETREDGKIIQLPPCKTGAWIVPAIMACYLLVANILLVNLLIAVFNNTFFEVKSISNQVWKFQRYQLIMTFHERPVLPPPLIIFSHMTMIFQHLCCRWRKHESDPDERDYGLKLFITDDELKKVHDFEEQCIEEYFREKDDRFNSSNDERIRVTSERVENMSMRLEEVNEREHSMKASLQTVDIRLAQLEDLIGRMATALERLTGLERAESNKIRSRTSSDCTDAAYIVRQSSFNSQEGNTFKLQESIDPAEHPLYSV
Protocol: Oocytes were placed in a recording chamber filled with bath solution, which contained 97 mM KCl, 5 mM EGTA, 10 mM Hepes, pH 7.4. Before starting measurements, the vitelline layer was carefully removed with forceps without damaging the oocyte. Then a giga-ohm seal was formed using a borosilicate glass pipette (World Precision Instruments) with resistance from 0.8 to 1 MΩ. The pipette was filled with a solution containing 97 mM NaCl, 2 mM KCl, 1 mM MgCl2, 5 mM Hepes, and 100 μM PregS at pH 7.4. Currents were measured by an Axopatch 200B amplifier and analyzed with the pClamp 9.0 software. Compounds were dissolved in the bath solution and delivered to the inner side of cell membrane by a custom-made gravity-driven perfusion system. Either 25 μM PI(4,5)P2, 25 μM PI(4)P, or 10 μM AASt PI(4,5)P2 was applied in these experiments to reactivate TRPM3. At the end of every recording, 30 μg/ml Poly-Lys (Poly-K) was applied.

CC1CCC(C(C)C)C(O)C1 (centres unmarked) [menthol]
menthol dose response, compared with WT TRPM8 (Rat TRPM8 or its mutants [1]): right shifted

pregnenolone sulfate [PregS]
EC50 (hTRPM3): 17 µM
EC50 (hTRPM3 V990M): 0.6 µM
EC50 (hTRPM3 P1090Q): 7 µM
PregS dose response, compared with WT TRPM3 [2]: shifted the PregS dose response to the right

COC[C@H]1OC(=O)c2coc3c2[C@@]1(C)C1=C(C3=O)[C@@H]2CCC(=O)[C@@]2(C)C[C@H]1OC(C)=O [wortmannin]
inhibition of TRPM3 by wortmannin [3]: did not inhibit TRPM3
inhibition of PregS-induced currents after wortmannin treatment, compared with WT TRPM3 ([4]; 50 μM PregS, R1141Q mutant): small but significant increase
inhibition of PregS-induced currents after wortmannin treatment, compared with WT TRPM3 ([4]; 50 μM PregS, mutants W761F, N991A, K992A and R1131Q): significantly higher inhibition
inhibition of PregS-induced currents after wortmannin treatment, WT vs disease mutants ([4]; 50 μM PregS): inhibited to a similar extent
inhibition of PregS-induced currents after wortmannin treatment, WT vs disease mutants ([4]; PregS at respective EC50 (17, 0.6, 7 μM)): inhibited to a similar extent to WT channels
inhibition of menthol-induced currents by wortmannin, compared with WT TRPM8 (Rat TRPM8 or its mutants [5]): significantly higher level of inhibition

CO[C@H]1C[C@@H]2CC[C@@H](C)[C@@](O)(O2)C(=O)C(=O)N2CCCC[C@H]2C(=O)O[C@H]([C@H](C)C[C@@H]2CC[C@@H](O)[C@H](OC)C2)CC(=O)[C@H](C)/C=C(\C)[C@@H](O)[C@@H](OC)C(=O)[C@H](C)C[C@H](C)/C=C/C=C/C=C/1C [rapamycin]
inhibition by rapamycin (PI(4,5)P2 depletion), N993A compared with WT mTRPM3α2 ([6]; currents induced by 25 μM PregS plus 10 μM clotrimazole): significantly larger inhibition
inhibition by rapamycin (PI(4,5)P2 depletion), N993A compared with WT mTRPM3α2 ([6]; currents stimulated with 25 μM PregS): significantly higher inhibition

CCCCCCCC(=O)OC[C@H](COP(=O)(O)O[C@H]1[C@H](O)[C@@H](O)[C@H](OP(=O)(O)O)[C@@H](O)[C@H]1O)OC(=O)CCCCCCC [PI(4)P]
relative effect of PI(4)P compared with PI(4,5)P2 [7]: did not change
